Experimental data as given in patent publication US9517993B2, “Antagonists of the toll-like receptor 1/2 complex” (THE REGENTS OF THE UNIVERSITY OF COLORADO, a body corporate, priority 2012, dated 2016).
“Also recorded” adds a separate entry of the source.

Legend:
RAW 264.7 cells = assay: MTT cytotoxicity assay; assay type: cell-based, mouse; conditions: for cytotoxicity: at the active dose, RAW 264.7 cells, MTT
Description: MTT Cytotoxicity Assay. In a 96-well plate 10,000 cells in 200 μL media (RPMI 1640 medium, supplemented with 10% FBS, penicillin (100 U/mL) and streptomycin ([…])) per well. Eight wells were left empty for blank controls. The plates were incubated (37° C., 5% CO2) overnight to allow the cells to attach to the wells. Add 20 ul (5 mg/mL) MTT solution to each well. Place on a shaking table, 150 rpm for 5 minutes, to thoroughly mix the MTT into the media. Incubate (37° C., 5% CO2) for 4 hours to allow the MTT to be metabolized. Dump off the media. Dry plate on paper towels to remove residue. Resuspend formazan (MTT metabolic product) in 200 ul DMSO. Place on a shaking table, 150 rpm for 5 minutes, to thoroughly mix the formazan into the solvent. When a clear difference could be seen by naked eye, results were read by spectrophotometer at 560 nm. Optical density should be directly correlated with cell quantity. Cytotoxicity (%) was determined using the following formula: Cytotoxicity (%) (1−[Compounds (OD560)−Background(OD560)]/[Control (OD560)−Background (OD560)])×100.

[1] = system: TNF-α and IL-1β production; assay: Cytokine-specific ELISA in Pam3CSK4-activated RAW 264.7 cells; assay type: cell-based, mouse
Description: RAW 264.7 cells were planted in 6-well plates at 1,000,000 cells per well with 3 mL of medium (RPMI 1640 medium, supplemented with 10% FBS, penicillin (100 U/mL) and streptomycin ([…])) and grown for 24 h at 37° C. in a 5% CO2 humidified incubator. After 24 h, non-adherent cells and media were removed and replaced with fresh RPMI 1640 medium (3 mL/well). Two wells of adherent macrophages were treated with Pam3CSK4 (Invivogen, 300 ng/mL) as the positive control, two wells was treated with 8 μM compound 17, and the other two wells ware treated with 8 μM compound DMSO. Another 6 well plate were treated with Pam3CSK4 (Invivogen, 300 ng/mL) and different concentration of 17. Plates were then incubated for an additional 24 h. […] Approximately 400 μL of supernatant were collected into new tubes, frozen at −80° C. until ready for cytokine measurement. The production of the cytokine interleukin-1β (IL-1β) and TNF-α was quantified with enzyme-linked immunosorbent assays (ELISA) using cytokine-specific capture antibodies, biotinylated monoclonal detection antibodies, and recombinant human cytokine standards according to commercially available ELISA kits from R&D Systems. The cytokine level in each sample was determined in duplicate.

[2] = system: isolated microglial cells; assay: IL-1β inhibition in isolated microglial cells incubated with Pam3CSK4; assay type: cell-based; conditions: Pam3CSK4 and compound for 2 hours, N=4, listed as CU-CPT22
Description: In vitro testing was conducted using primary cells (isolated microglial cells) incubated with Pam3CSK4 and CU-CPT22 for 2 hours.

pro-inflammatory mRNA = assay: In vivo ICM co-administration with Pam3CSK4, hippocampal mRNA by real time RT-PCR; conditions: 5 ng or 50 ng ICM with Pam3CSK4 40 ng; hippocampus 2 hours after injection; listed as CU-CPT22
Description: In vivo testing was conducted by the administration of Pam3CSK4 and CU-CPTP22. CU-CPT22 (5 ng or 50 ng), suspended in 5 μl sterile saline or vehicle, was co-administered with the TLR2 agonist Pam3CSK4 (40 ng/4 μl) to the animal via the cisterna magna (ICM) with a 1 μl air bubble separating the two reagents. Two hours after injection, the animal's hippocampus was collected for pro-inflammatory mRNA analysis using real time RT-PCR procedures. […] (N=8 for each group).

TLR1/2 = TLR1/2 (Homo sapiens, UniProt O60603+Q15399); assay: Fluorescence anisotropy competition assay with rhodamine-labeled Pam3CSK4; assay type: binding; set-up: His; TLR2 made in house; host or cells: baculovirus; Sf-9 for virus, High Five insect cells for expression (TLR2)
TLR1/2, sequence (Q15399 25-580 limits assumed): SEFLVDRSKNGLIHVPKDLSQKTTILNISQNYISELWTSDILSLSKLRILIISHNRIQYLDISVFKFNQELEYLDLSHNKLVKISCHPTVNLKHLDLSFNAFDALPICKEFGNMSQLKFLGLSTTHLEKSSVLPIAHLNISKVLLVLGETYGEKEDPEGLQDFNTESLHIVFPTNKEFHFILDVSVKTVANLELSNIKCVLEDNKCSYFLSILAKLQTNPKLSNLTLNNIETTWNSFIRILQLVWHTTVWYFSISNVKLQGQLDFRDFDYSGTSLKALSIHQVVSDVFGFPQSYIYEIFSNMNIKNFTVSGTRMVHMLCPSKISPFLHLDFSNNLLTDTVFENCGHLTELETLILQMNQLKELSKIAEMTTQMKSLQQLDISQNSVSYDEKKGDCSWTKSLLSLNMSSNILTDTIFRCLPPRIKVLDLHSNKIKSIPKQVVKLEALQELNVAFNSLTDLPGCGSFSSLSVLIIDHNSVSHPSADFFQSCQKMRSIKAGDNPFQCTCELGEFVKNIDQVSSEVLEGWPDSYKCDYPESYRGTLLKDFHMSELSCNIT
TLR1/2, sequence (O60603 21-588 limits assumed): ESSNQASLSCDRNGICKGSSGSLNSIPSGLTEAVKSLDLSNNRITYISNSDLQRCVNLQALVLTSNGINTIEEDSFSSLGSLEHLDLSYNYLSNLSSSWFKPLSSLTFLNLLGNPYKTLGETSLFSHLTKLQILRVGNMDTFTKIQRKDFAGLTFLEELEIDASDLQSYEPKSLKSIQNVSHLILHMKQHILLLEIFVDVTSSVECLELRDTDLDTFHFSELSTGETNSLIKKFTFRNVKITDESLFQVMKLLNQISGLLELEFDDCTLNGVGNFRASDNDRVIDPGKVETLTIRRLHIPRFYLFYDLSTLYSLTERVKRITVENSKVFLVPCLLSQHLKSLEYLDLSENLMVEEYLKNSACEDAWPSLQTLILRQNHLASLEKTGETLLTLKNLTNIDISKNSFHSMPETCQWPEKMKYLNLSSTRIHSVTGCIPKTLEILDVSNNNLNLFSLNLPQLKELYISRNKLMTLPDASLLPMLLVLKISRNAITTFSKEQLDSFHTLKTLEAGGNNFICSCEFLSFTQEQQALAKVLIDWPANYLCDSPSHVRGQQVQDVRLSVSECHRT
From the text: The TLR2 protein was expressed in the baculovirus insect cell expression system using the methods described by Kuroki et al. See Iwaki et al., The extracellular Toll-like receptor 2 domain directly binds peptidoglycan derived from Staphylococcus aureus, J. Biol Chem (2002), 277:24315-20, which is herein incorporated by reference in its entirety. The activity of the TLR2 protein was validated by the fluorescence anisotropy assay. […] Good fitting (R2>0.98) inferred that compound 17 and Pam3CSK4 compete for the same binding site on the TLR1/2 dimeric surface.
In 500 μL Tris buffer (pH=7.2) add 10 μL, (1 ng/mL) rhodamine-labeled Pam3CSK4, test the fluorescence anisotropy at excitation of 549 nm and emission of 566 nm (Horiba Fluorolog 3). And 5 μL (20 μM) TLR1 (R &D) and 5 μL, (20 μM) TLR2 was added into the above buffer, then retest the anisotropy. Following, compound 17 or compound 6 was added in the buffer from the concentration of 0 to 6 μM, and the fluorescence anisotropy was tested in the corresponding concentration.
Fluorescence polarization experiments were performed at 25° C. using a Horiba Fluorolog-3 fluorometer. For direct binding measurements, serial dilutions of TLR1 (R&D, MN) and TLR2 were made in Tris buffer (pH=7.2), and an aliquot (10 μL) of 1 ng/mL rhodamine labeled Pam3CSK4, was added to a total volume of 500 μL. The competition binding solution was incubated for 30 minutes at 25° C. Serial dilutions of compound 17 or compound 6 were incubated with 20 μM TLR1, 20 μM TLR2 and rhodamine-labeled Pam3CSK4 for 30 min at room temperature.
Regression analysis was carried out using Origin 7.5 (OriginLab) ligand binding macro module. […] Equation (1): y=min+(max−min)/(1+10^x-logIC50)(total binding, x=log concentration of and rhodamine-labeled Pam3CSK4, min=nonspecific binding, max=maximum binding in absence of ligand). Equation (2): Ki=IC50/(1+[L]/Kd) ([L]=concentration of rhodamine-labeled Pam3CSK4).

competition with Pam3CSK4 for TLR1/2 (in words) (TLR1/2; fluorescence anisotropy): competitive binding
Ki (TLR1/2; rhodamine-labeled Pam3CSK4, one-site competition model, read-out: inhibition constant (Ki), competition with Pam3CSK4 for binding to TLR1/2): 410 nM
Compound: CCCCCCOC(=O)c1cc(O)c(=O)c2c(O)c(O)c(OC)cc2c1 [compound 17, Hexyl 3,4,6-trihydroxy-2-methoxy-5-oxo-5H-benzo[7]annulene-8-carboxylate]
cytotoxicity (RAW 264.7 cells): no significant cytotoxicity
cytotoxicity (RAW 264.7 cells; listed as CU-CPT22): low toxicity
toxicity by MTT assay (RAW 264.7 cells; under 8 μM): no significant toxicity issues
TNF-α inhibition (ELISA) ([1]; RAW 264.7, 300 ng/mL Pam3CSK4): TNF-α inhibition
IL-1β production (ELISA) ([1]; RAW 264.7, activated by 300 ng/mL Pam3CSK4): inhibited
inhibition of IL-1β [2]: Dose-dependent inhibition
IL-6 / M-6 mRNA expression (FIG. 10c) (pro-inflammatory mRNA): strongly inhibits; also recorded: strong inhibition
TNF-α mRNA expression (FIG. 10b) (pro-inflammatory mRNA): strongly inhibits; also recorded: strong inhibition
mRNA expression (FIG. 10a) (pro-inflammatory mRNA): strongly inhibits; also recorded: strong inhibition
anisotropy of rhodamine-labeled Pam3CSK4 with TLR1/2 (TLR1/2; compound concentration increased to 6 μM): decreased the anisotropy to background levels
